Tested on: 521955-158-R2-J5-PDC complex spheroid viability
Assay: Anticancer human tumor 521955-158-R2-J5-PDC patient-derived pancreatic carcinoma cell line growth inhibition [GQUAD]
Conditions: for IC50: curve of first compound; for viability, T/C: stronger effect = lower value
Text: DNA G-quadruplex Stabilizer Agents in Combinations in Complex Spheroids
A high-throughput screen of multi-cell type tumor spheroids was designed to identify active combinations of DNA G-quadruplex stabilizer agents and targeted small molecules. Complex spheroids include a stromal component modeled by human endothelial cells (HUVEC) and fibroblasts modeled by human mesenchymal stem cells (MSCs). The concentration ranges selected for each drug and investigational agent were based upon clinically achievable concentrations if the clinical Cmax of the agent was known.
Compounds. The drugs and investigational agents: pidnarulex (CX-5461; NSC782164), APTO-253 (NSC789042), BRACO-19 (NSC847499), peposertib (NSC802822), ceralasertib (NSC780249), elimusertib (NSC800525), camonsertib (NSC841442), AZD-1390 (NSC803789), olaparib (NSC753686), talazoparib (NSC767125), ART-558 (NSC835418), sotorasib (NSC818433), MRTX-1133 (NSC836407), SN-38 (NSC673596), topotecan (NSC609699), etoposide (NSC141540), doxorubicin (NSC123127), gemcitabine (NSC613327), 5-fluorouracil (NSC19893), paclitaxel (NSC125973), vemurafenib (NSC761431), panobinostat (NSC761190), R-306465 (JNJ-16241199; NSC773264), adavosertib (NSC754352), TP-3654 (NSC805149), carboplatin (NSC241240), KSQ-4279 (NSC840948), and staurosporine (NSC755774) were obtained from the National Cancer Institute (NCI) Developmental Therapeutics Program Chemical Repository (34). The FDA-approved anticancer drug set is available from the NCI Developmental Therapeutics Program. […] The stock solutions were prepared in dimethyl sulfoxide (DMSO, Sigma-Aldrich, St. Louis, MO, cat. D2650) at 800-fold the tested concentration and stored at -70 degrees C prior to their use. All drugs and investigational agents were tested over a range starting from a high concentration at or near the clinical Cmax and decreasing in half-log increments. If the clinical Cmax for an agent had not been determined, the highest concentration tested was 10 microM.
2.3 Cell Culture. All cells were maintained in an incubator at 37 degrees C and 5% CO2 with 95% humidity. The PDC lines were cultured according to standard operating procedures established by the NCI PDMR. All PDCs were thawed and cultured in Matrigel-coated flasks prepared with a working solution of 1X Ham's F-12 nutrient mix, without supplementation (Invitrogen, cat. 11765054), 100 U/mL penicillin-streptomycin (Invitrogen, cat. 15140122), and 2.5% Matrigel (Corning Inc., cat. 354248) for the first three passages. The 857933-349-R-J2-PDC line was cultured in 6C/Colon 1B media, which includes advanced DMEM/F-12 (Thermo Fisher Scientific, cat. 12634028), 10 mM HEPES (Thermo Fisher Scientific, cat. 15630080), 1X GlutaMAX supplement (Thermo Fisher Scientific, cat. 35050061), 0.1 mg/mL primocin (InvivoGen, cat. ant-pm-2), 10% defined fetal bovine serum, heat inactivated (HyClone Laboratories Inc., cat. SH30070.03HI), 50% L-WRN conditioned media (ATCC, cat. CRL-3276), 1.25 mM N-Acetyl-L-cysteine (Sigma-Aldrich, cat. A9165), 10 mM nicotinamide (Sigma-Aldrich, cat. N0636), 1X B-27 supplement (Thermo Fisher Scientific, cat. 17504044), 1X N-2 supplement (Thermo Fisher Scientific, cat. 17502048), 10 microM Y-27632 dihydrochloride (Tocris Bioscience, cat. 1254), and 50 ng/mL human EGF recombinant protein (Thermo Fisher Scientific, cat. PHG0311). The 485176-168-R4-J1-PDC line was cultured in Panc media, which includes all 6C/Colon 1B media components plus 100 ng/mL human FGF-10 (Thermo Fisher Scientific, cat. 100-26), 500 nM SB-431542 (Selleckchem, cat. S1067), and gastrin (Tocris, cat. 3006).
[…]

[1] = second compound 0.0316 µM, first compound 0.0316 µM
[2] = second compound 0.0316 µM, first compound 0.1 µM
[3] = second compound 0.0316 µM, first compound 0.316 µM
[4] = second compound 0.0316 µM, first compound 1 µM
[5] = second compound 0.0316 µM, first compound 3.16 µM
[6] = second compound 0.0316 µM, first compound 10 µM
[7] = second compound 0.1 µM, first compound 0.0316 µM
[8] = second compound 0.1 µM, first compound 0.1 µM
[9] = second compound 0.1 µM, first compound 0.316 µM
[10] = second compound 0.1 µM, first compound 1 µM
[11] = second compound 0.1 µM, first compound 3.16 µM
[12] = second compound 0.1 µM, first compound 10 µM
[13] = second compound 0.316 µM, first compound 0.0316 µM
[14] = second compound 0.316 µM, first compound 0.1 µM
[15] = second compound 0.316 µM, first compound 0.316 µM
[16] = second compound 0.316 µM, first compound 1 µM
[17] = second compound 0.316 µM, first compound 3.16 µM
[18] = second compound 0.316 µM, first compound 10 µM
[19] = second compound 1 µM, first compound 0.0316 µM
[20] = second compound 1 µM, first compound 0.1 µM
[21] = second compound 1 µM, first compound 0.316 µM
[22] = second compound 1 µM, first compound 1 µM
[23] = second compound 1 µM, first compound 3.16 µM
[24] = second compound 1 µM, first compound 10 µM
[25] = second compound 3.16 µM, first compound 0.0316 µM
[26] = second compound 3.16 µM, first compound 0.1 µM
[27] = second compound 3.16 µM, first compound 0.316 µM
[28] = second compound 3.16 µM, first compound 1 µM
[29] = second compound 3.16 µM, first compound 3.16 µM
[30] = second compound 3.16 µM, first compound 10 µM
[31] = second compound 10 µM, first compound 0.0316 µM
[32] = second compound 10 µM, first compound 0.1 µM
[33] = second compound 10 µM, first compound 0.316 µM
[34] = second compound 10 µM, first compound 1 µM
[35] = second compound 10 µM, first compound 3.16 µM
[36] = second compound 10 µM, first compound 10 µM
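Note: spheroids exposed to agents for one week before reading.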
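Throughout, for viability, T/C: 100% = DMSO vehicle control viability.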

`C#Cc1c(F)ccc2cc(O)cc(-c3ncc4c(N5CC6CCC(C5)N6)nc(OCC56CCCN5CC(F)C6)nc4c3F)c12` (centres undefined) + CN(C)c1ccc(Nc2c3ccc(NC(=O)CCN4CCCC4)cc3nc3cc(NC(=O)CCN4CCCC4)ccc23)cc1 showed an IC50 (second compound 0.0316 µM) of 1770 nM, an IC50 (second compound 0.1 µM) of 1850 nM and an IC50 (second compound 0.316 µM) of 3390 nM. For the same compound, the IC50 (second compound 1 µM) was 1400 nM, the IC50 (second compound 3.16 µM) was 159 nM and the IC50 (second compound 10 µM) was less than 31.6 nM. For the same compound, the viability, T/C [1] was 66.3%, the viability, T/C [2] was 62.5% and the viability, T/C [3] was 57.5%. The viability, T/C [4] was 48.1%, the viability, T/C [5] was 52.5% and the viability, T/C [6] was 41.7%. It also gave a viability, T/C [7] of 74.2%, a viability, T/C [8] of 52.2% and a viability, T/C [9] of 62%. It also gave a viability, T/C [10] of 60.8%, a viability, T/C [11] of 40.6% and a viability, T/C [12] of 33.5%. For the same compound, the viability, T/C [13] was 61.3%, the viability, T/C [14] was 57% and the viability, T/C [15] was 62.8%. The viability, T/C [16] was 52.5%, the viability, T/C [17] was 53.1% and the viability, T/C [18] was 32.6%. The viability, T/C [19] was 74.8%, the viability, T/C [20] was 56.4% and the viability, T/C [21] was 60.1%. It also gave a viability, T/C [22] of 50%, a viability, T/C [23] of 51.6% and a viability, T/C [24] of 34.2%. It also gave a viability, T/C [25] of 49.7%, a viability, T/C [26] of 63.3% and a viability, T/C [27] of 40.5%. The viability, T/C [28] was 35.8%, the viability, T/C [29] was 29% and the viability, T/C [30] was 16.8%. For the same compound, the viability, T/C [31] was 31.8%, the viability, T/C [32] was 23.6% and the viability, T/C [33] was 15.2%. The viability, T/C [34] was 10.6%, the viability, T/C [35] was 6.1% and the viability, T/C [36] was 1.84%.

In the case of `COc1ncnc(C2CC2)c1-c1ncc2cnn(Cc3ccc(-c4nc(C(F)(F)F)cn4C(C)C)cc3)c2n1` + CN(C)c1ccc(Nc2c3ccc(NC(=O)CCN4CCCC4)cc3nc3cc(NC(=O)CCN4CCCC4)ccc23)cc1, the IC50 (second compound 0.0316 µM) is reported as greater than 10000 nM, the IC50 (second compound 0.1 µM) is reported as greater than 10000 nM and the IC50 (second compound 0.316 µM) is reported as greater than 10000 nM. The IC50 (second compound 1 µM) was greater than 10000 nM, the IC50 (second compound 3.16 µM) was greater than 10000 nM and the IC50 (second compound 10 µM) was 4550 nM. The viability, T/C [1] was 113%, the viability, T/C [2] was 103% and the viability, T/C [3] was 116%. The viability, T/C [4] was 114%, the viability, T/C [5] was 135% and the viability, T/C [6] was 140%. For the same compound, the viability, T/C [7] was 97.7%, the viability, T/C [8] was 112% and the viability, T/C [9] was 107%. It also gave a viability, T/C [10] of 112%, a viability, T/C [11] of 148% and a viability, T/C [12] of 122%. For the same compound, the viability, T/C [13] was 95.4%, the viability, T/C [14] was 123% and the viability, T/C [15] was 118%. It also gave a viability, T/C [16] of 121%, a viability, T/C [17] of 115% and a viability, T/C [18] of 117%. For the same compound, the viability, T/C [19] was 105%, the viability, T/C [20] was 109% and the viability, T/C [21] was 115%. It also gave a viability, T/C [22] of 122%, a viability, T/C [23] of 112% and a viability, T/C [24] of 115%. For the same compound, the viability, T/C [25] was 86%, the viability, T/C [26] was 93% and the viability, T/C [27] was 101%. It also gave a viability, T/C [28] of 111%, a viability, T/C [29] of 114% and a viability, T/C [30] of 82.8%. For the same compound, the viability, T/C [31] was 74%, the viability, T/C [32] was 74.7% and the viability, T/C [33] was 69.5%. The viability, T/C [34] was 76.7%, the viability, T/C [35] was 68.1% and the viability, T/C [36] was 10.3%.
